In publication PMC7854658, “Structural basis for ligand recognition of the neuropeptide Y Y2 receptor” (Nature Communications, 2021):
Substitutions are numbered along the chain they refer to. “And” between values parts separate entries of the source, which are not always exact repeats. Equal entries are not always repeated.

Legend:
Y2R mutant L227^5.46A = biological target: T1, Y2R mutant L227^5.46A (Homo sapiens, UniProt P49146, L227A); assay: NPY-induced IP accumulation (IP-One), mutant; format: cell-based
T1 construct: expressed in transfected cells; host or cells: HEK293
T1 sequence (P49146 1-381 L227A): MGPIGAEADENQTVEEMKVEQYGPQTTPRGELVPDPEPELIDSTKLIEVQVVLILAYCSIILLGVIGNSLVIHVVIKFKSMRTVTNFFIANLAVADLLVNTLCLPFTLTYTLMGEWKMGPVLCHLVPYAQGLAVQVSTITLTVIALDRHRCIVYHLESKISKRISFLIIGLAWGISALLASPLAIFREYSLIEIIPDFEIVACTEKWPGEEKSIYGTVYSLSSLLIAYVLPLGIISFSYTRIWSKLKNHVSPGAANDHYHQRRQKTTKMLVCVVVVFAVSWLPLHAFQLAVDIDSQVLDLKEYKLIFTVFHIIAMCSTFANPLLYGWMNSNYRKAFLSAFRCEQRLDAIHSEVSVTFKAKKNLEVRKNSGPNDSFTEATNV
Experimental: (§1) The plasmid hY2R_eYFP_pVitro2 encoding the WT Y2R and a fluorophore for investigating the receptor localization was used as template for the generation of receptor point mutations as previously described. Mutagenesis PCR was performed using the Phusion High-Fidelity Polymerase (Thermo Fisher Scientific, Waltham, MA, USA). […] The preparations of the plasmid DNA were performed using the Wizard plus Mini or Midi DNA purification kit (Promega, Madison, WI, USA).
(§2) To determine the contribution of residues to antagonist binding, IP-One accumulation assays (Cisbio, Codolet, France) were performed. HEK293 cells were seeded into six-well plates and transiently cotransfected with 3200 ng of receptor plasmid DNA and 800 ng of the chimeric G protein (Gα∆6qi4myr) to redirect the Gαi signaling pathway to the Gαq phospholipase C pathway. Transient transfection was carried out using Metafectene as transfection reagent according to the manufacturer’s protocol (Biontex, Munich, Germany) over night. The cells were then reseeded into white 384-well microplates (Greiner Bio-One, Kremsmünster, Austria) at a density of 15,000 cells per well and grown for additional 24 h.
(§3) All dilutions were performed in HBSS containing 20 mM LiCl (stimulation buffer) and DMSO with a final concentration of 0.01%.
(§4) To determine the amount of cellular IPs, the FRET acceptor (IP1-d2) and the FRET donor (anti-IP1-Cryptate) were reconstituted and diluted in lysis and detection buffer (1:20) as described in the manufacturer’s protocol. Three microliters of both solutions were added, and the cells were incubated on a tumbler for 60 min.

Y2R mutant V134^3.36A = biological target: T2, Y2R mutant V134^3.36A (Homo sapiens, UniProt P49146, V134A); assay: NPY-induced IP accumulation (IP-One), mutant; format: cell-based
T2 construct: expressed in transfected cells; host or cells: HEK293
T2 sequence (P49146 1-381 V134A): T1 sequence (P49146 1-381 L227A) with V134A, A227L
Experimental: as §1, §2, §3, §4

Y2R mutant W116^ECL1A = biological target: T3, Y2R mutant W116^ECL1A (Homo sapiens, UniProt P49146, W116A); assay: NPY-induced IP accumulation (IP-One), mutant; format: cell-based; details: 1 μM antagonist, source data Fig. 3
T3 construct: expressed in transfected cells; host or cells: HEK293
T3 sequence (P49146 whole entry W116A): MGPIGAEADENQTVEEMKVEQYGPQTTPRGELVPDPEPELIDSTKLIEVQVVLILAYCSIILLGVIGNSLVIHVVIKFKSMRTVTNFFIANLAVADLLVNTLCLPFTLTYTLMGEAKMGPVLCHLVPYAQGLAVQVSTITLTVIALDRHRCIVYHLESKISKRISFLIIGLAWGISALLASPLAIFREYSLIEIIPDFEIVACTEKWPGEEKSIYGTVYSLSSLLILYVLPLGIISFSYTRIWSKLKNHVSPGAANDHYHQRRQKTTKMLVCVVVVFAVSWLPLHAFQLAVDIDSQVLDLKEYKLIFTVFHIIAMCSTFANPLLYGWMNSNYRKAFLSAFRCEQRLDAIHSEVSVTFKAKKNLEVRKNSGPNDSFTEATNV
Experimental: as §1, §2, §3, §4

Y2R mutant S223^5.42A = biological target: T4, Y2R mutant S223^5.42A (Homo sapiens, UniProt P49146, S223A); assay: NPY-induced IP accumulation (IP-One), mutant; format: cell-based; details: 1 μM antagonist, source data Fig. 3
T4 construct: expressed in transfected cells; host or cells: HEK293
T4 sequence (P49146 whole entry S223A): as the sequence (P49146 whole entry W116A) above, with A116W, S223A counted along it
Experimental: as §1, §2, §3, §4

Y2R mutant S220^5.39A = biological target: T5, Y2R mutant S220^5.39A (Homo sapiens, UniProt P49146, S220A); assay: NPY-induced IP accumulation (IP-One), mutant; format: cell-based
T5 construct: expressed in transfected cells; host or cells: HEK293
T5 sequence (P49146 1-381 S220A): T1 sequence (P49146 1-381 L227A) with S220A, A227L
Experimental: as §1, §2, §3, §4

wild-type Y2R = biological target: T6, wild-type Y2R (Homo sapiens, UniProt P49146); assay: NPY-induced IP accumulation (IP-One) with or without 1 μM antagonist; format: cell-based; details: WT
T6 construct: expressed in transfected cells; host or cells: HEK293
T6 sequence (P49146 1-381): T1 sequence (P49146 1-381 L227A) with A227L
Experimental: as §1, §2, §3, §4

[1] = parameters: method as in Brothers, S. P. et al., Mol. Pharmacol. 77:46–57, 2010; details: ref Brothers, S. P. et al., Mol. Pharmacol. 77:46–57, 2010; cited from earlier work
[2] = 1 μM antagonist, source data Fig. 3
[3] = EC50(NPY + 1 μM antagonist)/EC50(NPY)
[4] = EC50 ratio (WT)/EC50 ratio (mutant)

## N=C(N)NCCC[C@H](NC(=O)CC1(CC(=O)N2CCN(C3c4ccccc4NC(=O)c4ccccc43)CC2)CCCC1)C(=O)NCCn1c(=O)n(-c2ccccc2)n(-c2ccccc2)c1=O (stereo partly drawn) [BIIE0246]
Y2R mutant L227^5.46A; [2]
  Average EC50 ratio: 27.7
  EC50 ratio (individual experiments): 31.4 and 24.0
Y2R mutant L227^5.46A; [3]
  EC50 ratio: 31 and 24
Y2R mutant L227^5.46A; [4]
  Ratio change (fold): 5 fold and 7 fold
Y2R mutant V134^3.36A; [2]
  Average EC50 ratio: 81.8
  EC50 ratio (individual experiments): 76.2 and 87.4
Y2R mutant V134^3.36A; [3]
  EC50 ratio: 76 and 87
Y2R mutant V134^3.36A; [4]
  Ratio change (fold): 2 fold and 1.8 fold
Y2R mutant W116^ECL1A
  Average EC50 ratio: 38.2
  EC50 ratio (individual experiments): 21.7 and 54.7
Y2R mutant S223^5.42A
  Average EC50 ratio: 168.7
  EC50 ratio (individual experiments): 275.8 and 61.6
Y2R mutant S220^5.39A; [2]
  Average EC50 ratio: 502.4
  EC50 ratio (individual experiments): 515.1 and 489.7
Y2R mutant S220^5.39A; [3]
  EC50 ratio: 515 and 490
Y2R mutant S220^5.39A; [4]
  Ratio change (fold): 0.3 fold
wild-type Y2R; [2]
  Average EC50 ratio: 157.4
  EC50 ratio (individual experiments): 143.5 and 171.2
wild-type Y2R; [3]
  EC50 ratio: 144 and 171 and 159
wild-type Y2R; [4]
  Ratio change (fold): 1 fold
[1]
  Blood-brain-barrier permeability: poor
